Series [1] can be described thus: Time course experiment of ABTS radical scavenging (temporal change in antioxidant activity). In kind it is biochemical. To be noted: recorded for 2900 seconds at 25°C, 734 nm; saclipin A 0.60 mM, saclipin B 0.18 mM, ascorbic acid 6 µM, Trolox 6 µM. On the procedure: A 7 mM ABTS aqueous solution and a 2.45 mM potassium persulfate aqueous solution were mixed at 25°C for 16 hours in the dark to prepare an ABTS radical solution. The ABTS radical solution was diluted with ethanol such that the absorbance at 734 nm was about 1.0. 50 µL of this diluted ABTS radical solution and 50 µL of the test sample ethanol solution were mixed, and the mixed reactant was held at room temperature for 20 or 40 minutes in the dark, then the absorbance was measured at 734 nm. The final reaction concentration of the sample was adjusted to 0 mM, 0.06 mM, 0.12 mM, 0.18 mM, 0.24 mM, 0.30 mM, 0.60 mM, 1.20 mM, and 1.80 mM. Ascorbic acid and Trolox were used as standard samples. Inhibition rates were calculated using the following equation. Inhibition activity (%) = ((Ab−As)/Ab) × 100 [formula]
Therefore, the temporal change of radical scavenging was measured by a time course experiment. In the time course experiment, the decrease in absorbance after addition of the test sample was recorded continuously for 2900 seconds at 25°C and 734 nm. In the time course experiment, the final reaction concentrations of saclipin A, saclipin B, ascorbic acid, and Trolox were adjusted to 0.60 mM, 0.18 mM, 6 µM, and 6 µM, respectively.

Series [2] is described as follows: Measurement of ABTS radical scavenging activity. Format: biochemical. The following applies: for IC50: ABTS method, room temperature, dark; for β/α value: IC50 after 40 minutes (β) divided by IC50 after 20 minutes (α), ABTS radical scavenging. Here is the method: To evaluate the antioxidant activity of saclipin A and saclipin B, 2,2-azino-bis(3-ethylbenzothiazoline-6-sulfonic acid) diammonium salt (ABTS) radical scavenging activity was measured.
The ABTS radical solution was diluted with ethanol such that the absorbance at 734 nm was about 1.0. 50 µL of this diluted ABTS radical solution and 50 µL of the test sample ethanol solution were mixed, and the mixed reactant was held at room temperature for 20 or 40 minutes in the dark, then the absorbance was measured at 734 nm. […] Ascorbic acid and Trolox were used as standard samples. Inhibition rates were calculated using the following equation. Inhibition activity (%) = ((Ab−As)/Ab) × 100 [formula]
Here, Ab and As represent the absorbances of the blank sample and the test sample, respectively.

Series [3] concerns elastin. The series is described as follows: Elastin anti-glycation assay kit. In kind it is biochemical. To be noted: for IC50: sample dissolved in DMSO, read-out: IC50 value, inhibition effect on the glycation reaction of elastin. Here is the method: (§1) To evaluate the anti-glycation activity of saclipin A and saclipin B, the effect on glycation of elastin and collagen was investigated.
(§2) The effect of saclipin on the glycation of elastin and collagen was evaluated using an elastin anti-glycation assay kit (product number: AAS-AGE-K05, Cosmo Bio Co., Ltd.) and a collagen anti-glycation assay kit (product number: AK71, Cosmo Bio Co., Ltd.), respectively. The assay was performed according to the manufacturer's protocol using saclipin A and saclipin B purified from Suizenji-nori. However, since saclipin was not dissolved in the attached aqueous buffer solution, it was dissolved in dimethyl sulfoxide (DMSO) and subjected to an experiment. The final reaction concentration of the sample was adjusted to 0 mM, 0.5 mM, 1.0 mM, 2.0 mM, and 4.0 mM.

In series [4] the test system is collagen. The series is described as follows: Collagen anti-glycation assay kit. In kind it is biochemical. To be noted: sample dissolved in DMSO; read-out: IC50 value, inhibition effect on glycation of collagen. Here is the method:
as §1, §2

In series [5] the test system is neonatal human dermal fibroblasts (NHDF). The series is described as follows: MTT test on neonatal human dermal fibroblasts (biocompatibility test). Format: cell-based. To be noted: compared with 1% ethanol control; for appearance of cells (microphotographs): 10.0 µM; for cytotoxicity (cell viability, MTT): 0.1 to 10.0 µM. On the procedure:
(§3) In order to examine the cytotoxicity of saclipin A and saclipin B, MTT tests were performed on (1) neonatal human dermal fibroblasts and (2) human keratinocytes.
(§4) The neonatal human dermal fibroblasts (NHDF) were purchased from ATCC. The neonatal human dermal fibroblasts were seeded in 96-well plates at 1×10^4 cells/well. Neonatal human dermal fibroblasts were cultured overnight at 37°C, 5% CO2 using Dulbecco's modified eagle medium (DMEM) in which 10% fetal bovine serum, […], and 10 mM HEPES were added to DMEM. 0.1 µM, 0.36 µM, 1.0 µM, 3.6 µM, and 10.0 µM of saclipin A or saclipin B were added to each cell. As a control, 1% ethanol was added to the cells. Next, 0.5 mg/mL MTT(3-(4,5-dimethylthiazole-2-yl)-2,5-diphenyltetrazolium bromide) was added, and the mixture was cultured for 20 hours at 37°C, 5% CO2. The whole formazan crystals were dissolved in dimethyl sulfoxide (DMSO), and then the absorbance of each sample solution was measured at 540 nm to determine the cell viability.
The upper part of Fig. 12 is a graph showing the results of cell viability (%). The labels on the horizontal axis represent each sample corresponding to the bar graph. For example, the labels "saclipin A" "10.00" represent that the cells were treated with 10.0 µM saclipin A. The vertical axis represents the cell viability when the cell viability of cells treated with 1% ethanol is taken as 100%.
In general terms: Tetrazolium dyes change colour on reduction, which living cells bring about.

Series [6] concerns PSVK1 cells. Kind of series: MTT test on human keratinocytes (biocompatibility test). Format: cell-based. The following applies: compared with 1% ethanol control; for appearance of cells (microphotographs): 10.0 µM; for cytotoxicity (cell viability, MTT): 0.1 to 10.0 µM. On the procedure:
as §3, §4
PSVK1 cells (JCRB1093, JCRB Cell Bank, National Institute of Biomedical Innovation, Health and Nutrition, Japan) were used as human keratinocytes. In this test, the test was carried out in the same manner as in "(1) MTT test on neonatal human dermal fibroblasts" described above except that the cells were cultured using a keratinocyte medium (Thermo Fisher Scientific) supplemented with 0.05 mg/mL bovine pituitary extract, 0.005 µg/mL epidermal growth factor, 100 units/mL penicillin, and 100 µg/mL streptomycin (Gibco).
The upper part of Fig. 13 is a graph showing the results of cell viability (cell viability, %). The labels on the horizontal axis represent each sample corresponding to each bar graph. For example, the labels "saclipin A" "10.00" represent that the cells were treated with 10.0 µM saclipin A. The vertical axis represents the cell viability when the cell viability of cells treated with 1% ethanol is taken as 100%.

The nature of series [7]: Absorption spectrum analysis (ultraviolet absorption). In kind it is physicochemical. To be noted: methanol solution; for Molar absorption coefficient: at the absorption maximum. Here is the method: The obtained dried sample was dissolved in methanol, and subjected to absorption spectrum analysis, high-resolution mass spectrometry, and measurement of ^1H and ^13C-NMR spectra. In each graph of Fig. 3, the horizontal axis represents wavelength (nm), and the vertical axis represents relative absorbance.
The absorption spectra of "saclipin A (Sac A)", "saclipin B (Sac B)", "methyl-esterified saclipin A (Sac A_methyl ester)", and "methyl-esterified saclipin B (Sac B_methyl ester)" were acquired by the method described in "2. Structure determination of saclipin A and saclipin B" described above. In each graph of Fig. 11, the horizontal axis represents wavelength (nm), and the vertical axis represents relative absorbance. The maximum point of saclipin A was 317 nm. The maximum point of methyl-esterified saclipin A was 316 nm. The maximum point of saclipin B was 319 nm. The maximum point of methyl-esterified saclipin B was 319 nm.

Series [8] can be described thus: Photoisomerization by light irradiation, HPLC analysis. The following applies: for time for which the amount ratio of saclipin A and saclipin B did not change: dark treatment after light irradiation. Format: physicochemical. Here is the method:
Saclipin A purified from dried Suizenji-nori was dissolved in methanol, ethanol or acetonitrile, and the solution was irradiated with light of 6000 lux under a white fluorescent lamp for 24 hours or longer. Thereafter, HPLC analysis was performed under the following measurement conditions to calculate the amounts of saclipin A and saclipin B, and the isomerization rate of saclipin A was calculated. The chromatogram of the saclipin A solution before light irradiation is shown on the left in Fig. 6, and the chromatogram of the saclipin A solution after light irradiation is shown on the right in Fig. 6.
• Detection wavelength: 320 nm • Column: Inerteil ODS-P 3 µm, 4.6×33 + 4.6×150 mm • Eluent: 50% Acetonitrile (isocratic)

Where [9] appears, read: reaction time 20 min, read-out: IC50 value (µM) 20 min.
Setting [10] is: reaction time 40 min, read-out: IC50 value (µM) 40 min.

The record followed here is patent EP4748903A1, “ULTRAVIOLET ABSORBER, ANTIOXIDANT, ANTI-GLYCATION AGENT, EXTERNAL PREPARATION FOR SKIN, COSMETIC, METHOD FOR PRODUCING COMPOUND, AND COMPOUND” (Meijo University, priority 2023, dated 2025).

Like-named read-outs stand apart in the source and are kept apart here.

As usually defined, the IC50 is the concentration that gives 50% inhibition. Regarding `O=C1O[C@H]([C@@H](O)CO)C(O)=C1O` [Ascorbic acid, reference compound], the “temporal change of radical scavenging” value in series [1] was “hardly functioned after a radical scavenging reaction occurred immediately after addition”. For the same compound, the results for the 50% inhibitory concentration (IC50) in series [2] (setting [9]) and in series [2] (setting [10]) were 7.9 µM and 7.5 µM, respectively. In series [2], this compound registered a β/α value of 0.95.
Turning to `Cc1c(C)c2c(c(C)c1O)CCC(C)(C(=O)O)O2` (centres unmarked) [Trolox, 6-hydroxy-2,5,7,8-tetramethylchroman-2-carboxylic acid, reference compound], the “temporal change of radical scavenging” value in series [1] was “hardly functioned after a radical scavenging reaction occurred immediately after addition”. Further, the concentration for half-maximal inhibition (IC50) in series [2] (setting [9]) and in series [2] (setting [10]) was 6.7 µM each time. In series [2], this compound yielded a β/α value of 1.00.
With `N=C(N)NN` [aminoguanidine, reference compound], the IC50 came to 1.5 mM in series [3] and 2.4 mM in series [4].
Turning to `CCC(=O)/C=C/C=C/C=C/C(=O)CCCCCCCC(=O)O` [saclipin A, (10E,12E,14E)-9,16-Dioxooctadeca-10,12,14-trienoic acid], the “temporal change of radical scavenging” value in series [1] is “proceeded even after 2900 seconds”. The half-inhibitory concentration (IC50) in series [3] amounted to 2.5 mM; in series [4] it was 1.9 mM; in series [2] (setting [9]), 974 µM; in series [2] (setting [10]), 717 µM. Besides, the “appearance of cells (microphotographs)” value in series [5] and in series [6] was “no abnormality was observed” each time. The “cytotoxicity (cell viability, MTT)” value in series [5] and in series [6] was “not higher than that of 1% ethanol at any concentration” each time. The Molar absorption coefficient in series [7] is 26,454 M^-1cm^-1. Besides, the Absorption maximum in series [7] was determined as 317 nm; in series [7] (listed as Saclipin A) it was 316 nm. In series [2], the β/α value was 0.78. The “time for which the amount ratio of saclipin A and saclipin B did not change” value in series [8] is “at least 96 hours”. Further, the “dissolved saclipin A converted to saclipin B” value in series [8] (methanol, ethanol or acetonitrile, 6000 lux white fluorescent lamp, 24 hours or longer) is “About 90%”.
Regarding `CCC(=O)/C=C/C=C\C=C\C(=O)CCCCCCCC(=O)O` [saclipin B, (10E,12Z,14E)-9,16-Dioxooctadeca-10,12,14-trienoic acid], the “temporal change of radical scavenging” value in series [1] is “proceeded even after 2900 seconds”. The “glycation reaction inhibited (elastin)” value in series [3] (concentration of 4 mM) is reported as “about 45%”. Moreover, the “appearance of cells (microphotographs)” value in series [5] and in series [6] was “no abnormality was observed” in each case. In addition, the “cytotoxicity (cell viability, MTT)” value in series [5] and in series [6] was “not higher than that of 1% ethanol at any concentration” each time. Besides, the Molar absorption coefficient in series [7] is listed as 30,555 M^-1cm^-1. Moreover, the Absorption maximum in series [7] came to 319 nm. Also, the values for the half-maximal inhibitory concentration (IC50) in series [4], in series [2] (setting [9]) and in series [2] (setting [10]) were 0.9 mM, 182 µM and 142 µM, respectively. The same compound returned a β/α value in series [2] of 0.74. For the same compound, in series [8], the “time for which the amount ratio of saclipin A and saclipin B did not change” value is “at least 96 hours”.
